# In patent US20210254272A1, “TEXTILES HAVING ANTIMICROBIAL PROPERTIES” (Livinguard AG, priority 2015, published 2021):
# Assay: Leaching test: 100 g fabric soaked in 10 liters stagnant distilled water, 3 days (72 hours)
# Type: physicochemical
# Details: for Leaching of active ingredients: exhaust 80° C. 60 min, cured 180° C. 2 min, post wash
# Description: (§1) The test procedure for leaching was as follows: 100 g (grams) of fabric as well as control fabrics were soaked in 10 liters of stagnant distilled water in a closed wide mouth jar. After 3 days (72 hours), the water samples were tested for leached substances as per standard analytical methods.
# as §1, with “methods. A weight of 100 g fabric was chosen because in the preferred embodiment of the water filter as described further below, each filter comprises a strip of fabric with 210 g/m^2, 3 meters long and 0.16 meters wide, which corresponds to 100 g of fabric.” for “methods.”
substance,measurement,setting,value
Silver,Leaching of active ingredients (in ppm),"0.2% each in mixture (o.w.f), exhaust 80° C., 60 min, curing 180° C., 2 min, unwashed",7 ppm
same,Leaching of active ingredients (in ppm),"0.5% each in mixture (o.w.f), exhaust 80° C., 60 min, curing 180° C., 2 min, unwashed",11 ppm
same,Leaching of active ingredients (in ppm),"1.0% each in mixture (o.w.f), exhaust 80° C., 60 min, curing 180° C., 2 min, unwashed",18 ppm
same,Leeching in ppm,"Exhaust + Wash + pad + Wash, exhaust 0.1% o.w.f. each in mixture, 1 gm/liter pad",0.3 ppm
same,Leeching in ppm,"Exhaust + Wash + pad + Wash, exhaust 0.1% o.w.f. each in mixture, 5 gm/liter pad",0.5 ppm
same,Leeching in ppm,"Exhaust + Wash + pad + Wash, exhaust 0.1% o.w.f. each in mixture, 10 gm/liter pad",0.6 ppm
same,Leeching in ppm,"Exhaust + Wash + pad + Wash, exhaust 0.25% o.w.f. each in mixture, 1 gm/liter pad",3 ppm
same,Leeching in ppm,"Exhaust + Wash + pad + Wash, exhaust 0.25% o.w.f. each in mixture, 5 gm/liter pad",7 ppm
same,Leeching in ppm,"Exhaust + Wash + pad + Wash, exhaust 0.25% o.w.f. each in mixture, 10 gm/liter pad",16 ppm
same,Leeching in ppm,"Exhaust + Wash + pad + Wash, exhaust 0.5 (% o.w.f) each in mixture, 1 gm/liter pad",8 ppm
same,Leeching in ppm,"Exhaust + Wash + pad + Wash, exhaust 0.5 (% o.w.f) each in mixture, 5 gm/liter pad",14 ppm
same,Leeching in ppm,"Exhaust + Wash + pad + Wash, exhaust 0.5 (% o.w.f) each in mixture, 10 gm/liter pad",22 ppm
same,Leeching in ppm,"Exhaust + Wash + pad + Wash, exhaust 1.0% o.w.f. each in mixture, 1 gm/liter pad",14 ppm
same,Leeching in ppm,"Exhaust + Wash + pad + Wash, exhaust 1.0% o.w.f. each in mixture, 5 gm/liter pad",23 ppm
same,Leeching in ppm,"Exhaust + Wash + pad + Wash, exhaust 1.0% o.w.f. each in mixture, 10 gm/liter pad",28 ppm
same,Leeching in ppm,"Exhaust + pad + Wash, exhaust 0.1% o.w.f. each in mixture, 1 gm/liter pad",145 ppm
same,Leeching in ppm,"Exhaust + pad + Wash, exhaust 0.1% o.w.f. each in mixture, 5 gm/liter pad",235 ppm
same,Leeching in ppm,"Exhaust + pad + Wash, exhaust 0.1% o.w.f. each in mixture, 10 gm/liter pad",254 ppm
same,Leeching in ppm,"Exhaust + pad + Wash, exhaust 0.25% o.w.f. each in mixture, 1 gm/liter pad",223 ppm
same,Leeching in ppm,"Exhaust + pad + Wash, exhaust 0.25% o.w.f. each in mixture, 5 gm/liter pad",257 ppm
same,Leeching in ppm,"Exhaust + pad + Wash, exhaust 0.25% o.w.f. each in mixture, 10 gm/liter pad",534 ppm
same,Leeching in ppm,"Exhaust + pad + Wash, exhaust 0.5 (% o.w.f) each in mixture, 1 gm/liter pad",456 ppm
same,Leeching in ppm,"Exhaust + pad + Wash, exhaust 0.5 (% o.w.f) each in mixture, 5 gm/liter pad",573 ppm
same,Leeching in ppm,"Exhaust + pad + Wash, exhaust 0.5 (% o.w.f) each in mixture, 10 gm/liter pad",645 ppm
same,Leeching in ppm,"Exhaust + pad + Wash, exhaust 1.0% o.w.f. each in mixture, 1 gm/liter pad",534 ppm
same,Leeching in ppm,"Exhaust + pad + Wash, exhaust 1.0% o.w.f. each in mixture, 5 gm/liter pad",654 ppm
same,Leeching in ppm,"Exhaust + pad + Wash, exhaust 1.0% o.w.f. each in mixture, 10 gm/liter pad",849 ppm
same,Leeching in ppm,"Exhaust + pad, exhaust 0.1% o.w.f. each in mixture, 1 gm/liter pad",208 ppm
same,Leeching in ppm,"Exhaust + pad, exhaust 0.1% o.w.f. each in mixture, 5 gm/liter pad",298 ppm
same,Leeching in ppm,"Exhaust + pad, exhaust 0.1% o.w.f. each in mixture, 10 gm/liter pad",362 ppm
same,Leeching in ppm,"Exhaust + pad, exhaust 0.25% o.w.f. each in mixture, 1 gm/liter pad",320 ppm
same,Leeching in ppm,"Exhaust + pad, exhaust 0.25% o.w.f. each in mixture, 5 gm/liter pad",321 ppm
same,Leeching in ppm,"Exhaust + pad, exhaust 0.25% o.w.f. each in mixture, 10 gm/liter pad",387 ppm
same,Leeching in ppm,"Exhaust + pad, exhaust 0.5 (% o.w.f) each in mixture, 1 gm/liter pad",398 ppm
same,Leeching in ppm,"Exhaust + pad, exhaust 0.5 (% o.w.f) each in mixture, 5 gm/liter pad",453 ppm
same,Leeching in ppm,"Exhaust + pad, exhaust 0.5 (% o.w.f) each in mixture, 10 gm/liter pad",801 ppm
same,Leeching in ppm,"Exhaust + pad, exhaust 1.0% o.w.f. each in mixture, 1 gm/liter pad",595 ppm
same,Leeching in ppm,"Exhaust + pad, exhaust 1.0% o.w.f. each in mixture, 5 gm/liter pad",749 ppm
same,Leeching in ppm,"Exhaust + pad, exhaust 1.0% o.w.f. each in mixture, 10 gm/liter pad",1234 ppm
same,Leeching in ppm,"Exhaust +Wash + pad, exhaust 0.1% o.w.f. each in mixture, 1 gm/liter pad",86 ppm
same,Leeching in ppm,"Exhaust +Wash + pad, exhaust 0.1% o.w.f. each in mixture, 5 gm/liter pad",164 ppm
same,Leeching in ppm,"Exhaust +Wash + pad, exhaust 0.1% o.w.f. each in mixture, 10 gm/liter pad",254 ppm
same,Leeching in ppm,"Exhaust +Wash + pad, exhaust 0.25% o.w.f. each in mixture, 1 gm/liter pad",196 ppm
same,Leeching in ppm,"Exhaust +Wash + pad, exhaust 0.25% o.w.f. each in mixture, 5 gm/liter pad",212 ppm
same,Leeching in ppm,"Exhaust +Wash + pad, exhaust 0.25% o.w.f. each in mixture, 10 gm/liter pad",324 ppm
same,Leeching in ppm,"Exhaust +Wash + pad, exhaust 0.5 (% o.w.f) each in mixture, 1 gm/liter pad",375 ppm
same,Leeching in ppm,"Exhaust +Wash + pad, exhaust 0.5 (% o.w.f) each in mixture, 5 gm/liter pad",435 ppm
same,Leeching in ppm,"Exhaust +Wash + pad, exhaust 0.5 (% o.w.f) each in mixture, 10 gm/liter pad",578 ppm
same,Leeching in ppm,"Exhaust +Wash + pad, exhaust 1.0% o.w.f. each in mixture, 1 gm/liter pad",475 ppm
same,Leeching in ppm,"Exhaust +Wash + pad, exhaust 1.0% o.w.f. each in mixture, 5 gm/liter pad",546 ppm
same,Leeching in ppm,"Exhaust +Wash + pad, exhaust 1.0% o.w.f. each in mixture, 10 gm/liter pad",656 ppm
same,Leaching of active ingredients (in ppm),"exhaust 60° C., solution dosage 1% o.w.f, process time 60 min",21 ppm
same,Leaching of active ingredients (in ppm),"exhaust 60° C., solution dosage 1% o.w.f, process time 90 min",13 ppm
same,Leaching of active ingredients (in ppm),"exhaust 60° C., solution dosage 1% o.w.f, process time 120 min",13 ppm
same,Leaching of active ingredients (in ppm),"exhaust 60° C., solution dosage 1% o.w.f, process time 180 min",12 ppm
same,Leaching of active ingredients (in ppm),"exhaust 60° C., solution dosage 1% o.w.f, process time 240 min",15 ppm
same,Leaching of active ingredients,mixture 0.2% o.w.f. each,0.3 ppm
same,Leaching of active ingredients,mixture 0.5% o.w.f. each,0.5 ppm
same,Leaching of active ingredients,mixture 1% o.w.f. each,0.9 ppm
same,Leaching of active ingredients (in ppm),"exhaust 80° C., 1% o.w.f, 60 min, curing 170° C., curing dwell time 0.5 min",28 ppm
same,Leaching of active ingredients (in ppm),"exhaust 80° C., 1% o.w.f, 60 min, curing 170° C., curing dwell time 1.0 min",24 ppm
same,Leaching of active ingredients (in ppm),"exhaust 80° C., 1% o.w.f, 60 min, curing 170° C., curing dwell time 1.5 min",21 ppm
same,Leaching of active ingredients (in ppm),"exhaust 80° C., 1% o.w.f, 60 min, curing 170° C., curing dwell time 2.0 min",13 ppm
same,Leaching of active ingredients (in ppm),"exhaust 80° C., 1% o.w.f, 60 min, curing 170° C., curing dwell time 2.5 min",19 ppm
same,Leaching of active ingredients (in ppm),"exhaust 80° C., 1% o.w.f, 60 min, curing 170° C., curing dwell time 3.0 min",19 ppm
same,Leaching of active ingredients (in ppm),"exhaust 80° C., 1% o.w.f, 60 min, curing 180° C., curing dwell time 0.5 min",21 ppm
same,Leaching of active ingredients (in ppm),"exhaust 80° C., 1% o.w.f, 60 min, curing 180° C., curing dwell time 1.0 min",13 ppm
same,Leaching of active ingredients (in ppm),"exhaust 80° C., 1% o.w.f, 60 min, curing 180° C., curing dwell time 1.5 min",13 ppm
same,Leaching of active ingredients (in ppm),"exhaust 80° C., 1% o.w.f, 60 min, curing 180° C., curing dwell time 2.0 min",4 ppm
same,Leaching of active ingredients (in ppm),"exhaust 80° C., 1% o.w.f, 60 min, curing 180° C., curing dwell time 2.5 min",12 ppm
same,Leaching of active ingredients (in ppm),"exhaust 80° C., 1% o.w.f, 60 min, curing 180° C., curing dwell time 3.0 min",12 ppm
same,Leaching of active ingredients (in ppm),"exhaust 80° C., 1% o.w.f, 60 min, curing dwell time at 190° C. (title): 0.5 min",18 ppm
same,Leaching of active ingredients (in ppm),"exhaust 80° C., 1% o.w.f, 60 min, curing dwell time at 190° C. (title): 1.0 min",12 ppm
same,Leaching of active ingredients (in ppm),"exhaust 80° C., 1% o.w.f, 60 min, curing dwell time at 190° C. (title): 1.5 min",10 ppm
same,Leaching of active ingredients (in ppm),"exhaust 80° C., 1% o.w.f, 60 min, curing dwell time at 190° C. (title): 2.0 min",10 ppm
same,Leaching of active ingredients (in ppm),"exhaust 80° C., 1% o.w.f, 60 min, curing dwell time at 190° C. (title): 2.5 min",24 ppm
same,Leaching of active ingredients (in ppm),"exhaust 80° C., 1% o.w.f, 60 min, curing dwell time at 190° C. (title): 3.0 min",35 ppm
